Non-standard residues stand in square brackets, D forms with d. Residues, ends and D or L forms follow the SMILES beside them. *: point of attachment. Propanoyl(3-indol-3-yl) = O=C(CCc1c[nH]c2ccccc12)*; Trp(1-Me) = Cn1cc(C[C@H](N)C(=O)O)c2ccccc21; Tle = CC(C)(C)[C@H](N)C(=O)O; Ava = NCCCCC(=O)O
Key:
[1] = molecular target: T1, Neuropeptides B/W receptor type 1 (Homo sapiens, UniProt P48145); experiment: (§1) Agonist activity at human NPBWR1 expressed in CHO-RD-HGA16 cells measured by calcium mobilization assay; type: functional, cell-based
T1 sequence (P48145 whole entry): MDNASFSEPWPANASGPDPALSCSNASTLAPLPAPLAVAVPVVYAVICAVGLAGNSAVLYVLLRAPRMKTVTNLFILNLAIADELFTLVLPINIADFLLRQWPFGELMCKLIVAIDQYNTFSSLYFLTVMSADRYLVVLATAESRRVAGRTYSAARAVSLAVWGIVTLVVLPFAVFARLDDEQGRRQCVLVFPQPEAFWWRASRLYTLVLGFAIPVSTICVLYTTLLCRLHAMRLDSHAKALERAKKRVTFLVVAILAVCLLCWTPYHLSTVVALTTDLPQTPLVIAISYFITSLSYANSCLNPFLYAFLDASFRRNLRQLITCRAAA

[2] = molecular target: T2, Neuropeptides B/W receptor type 1 (Homo sapiens) (UniProt P48145); experiment: Agonist activity at human NPBWR1 expressed in CHO-RD-HGA16 cells measured by calcium mobilization assay relative to control; type: functional, cell-based
T2 sequence (whole entry): T1 sequence (P48145 whole entry)

[3] = molecular target: T2, Neuropeptides B/W receptor type 1 (Homo sapiens); experiment: Antagonist activity at human NPBWR1 expressed in CHO-RD-HGA16 cells at 10 uM measured by calcium mobilization assay relative to control; type: functional, cell-based; set-up: scale not given: the % may be the effect or the level left; details: filed as antagonist
[4] = molecular target: T1, Neuropeptides B/W receptor type 1; experiment: Antagonist activity at human NPBWR1 expressed in CHO-RD-HGA16 cells measured by calcium mobilization assay; type: functional, cell-based
[5] = molecular target: T1, Neuropeptides B/W receptor type 1; experiment: Agonist activity at human NPBWR1 expressed in CHO cells measured by LANCE Ultra cAMP kit-based TR-FRET assay; type: functional, cell-based
[6] = Metabolic stability in male Sprague-Dawley rat plasma assessed as compound remaining at 1 uM measured after […] by LC-MS/MS analysis; type: ADME, cell-free; details: read-out: Stability
[7] = Metabolic stability in male Sprague-Dawley rat plasma assessed as half-life at 1 uM measured after 240 mins by LC-MS/MS analysis; type: ADME, cell-free
[8] = molecular target: T2, Neuropeptides B/W receptor type 1 (Homo sapiens); experiment: as §1; type: functional, cell-based; details: filed as agonist

Q: Which EC50 [1] does the source give for CC(C)C[C@H](NC(=O)[C@H](CC(C)C)NC(=O)CNC(=O)[C@H](C)NC(=O)[C@@H](C)NC(=O)[C@H](CCCNC(=N)N)NC(=O)CCCCNC(=O)CCCCNC(=O)CCCCNC(=O)[C@H](CCCCN)NC(=O)[C@H](Cc1ccc(O)cc1)NC(=O)[C@@H](N)Cc1c[nH]c2ccccc12)C(N)=O here?
A: 578 nM

Q: What about the Emax [2] of the same compound?
A: 33%

Q: What does the source list for CC(C)C[C@H](NC(=O)CNC(=O)[C@H](C)NC(=O)[C@H](C)NC(=O)[C@H](CCCNC(=N)N)NC(=O)CNC(=O)CCCCNC(=O)CCCCNC(=O)CCCCNC(=O)[C@H](C)NC(=O)[C@@H](N)Cc1c[nH]c2ccccc12)C(=O)N[C@@H](CC(C)C)C(=O)N[C@@H](CO)C(N)=O (H-WA[Ava][Ava][Ava]GRAAGLLS-NH2)?
A: Activity [3]: 95%; IC50 [4]: 840 nM; EC50 [1]: > 10000 nM

Q: For CCCCCCCCCCCCCCCC(=O)NCCCC[C@H](NC(=O)[C@H](CCCCN)NC(=O)[C@H](CCCCN)NC(=O)[C@H](CCCCN)NC(=O)[C@H](Cc1ccc(O)cc1)NC(=O)[C@@H](N)Cc1c[nH]c2ccccc12)C(=O)N[C@@H](CCCCN)C(=O)NCCCCC(=O)NCC(=O)N[C@@H](CCCNC(=N)N)C(=O)N[C@@H](C)C(=O)N[C@@H](C)C(=O)NCC(=O)N[C@@H](CC(C)C)C(=O)N[C@@H](CC(C)C)C(N)=O, which IC50 ([4]; cho-rd-hga16) is on record?
A: 406 nM

Q: What about the EC50 ([1]; cho-rd-hga16) of the same compound?
A: > 10000 nM

Q: Which EC50 [1] does the source give for CC(C)C[C@H](NC(=O)[C@@H](CC(C)C)NC(=O)CNC(=O)[C@H](C)NC(=O)[C@H](C)NC(=O)[C@H](CCCNC(=N)N)NC(=O)CCCCNC(=O)CCCCNC(=O)CCCCNC(=O)[C@H](CCCCN)NC(=O)[C@H](Cc1ccc(O)cc1)NC(=O)[C@@H](N)Cc1c[nH]c2ccccc12)C(N)=O here?
A: 530 nM

Q: What about the Emax [2] of the same compound?
A: 38%

Q: Which Activity [3] does the source give for CCCCCCCCCCCCCCCC(=O)NCCCC[C@@H](NC(=O)[C@H](CCCCN)NC(=O)[C@H](CCCCN)NC(=O)[C@H](CCCCN)NC(=O)[C@H](Cc1ccc(O)cc1)NC(=O)[C@@H](N)Cc1c[nH]c2ccccc12)C(=O)N[C@@H](CCCCN)C(=O)NCCCCC(=O)NCC(=O)N[C@@H](CCCNC(=N)N)C(=O)N[C@@H](C)C(=O)N[C@@H](C)C(=O)NCC(=O)N[C@@H](CC(C)C)C(=O)N[C@@H](CC(C)C)C(N)=O here?
A: 95%

Q: Which results are given for CC(C)C[C@H](NC(=O)[C@H](CC(C)C)NC(=O)CNC(=O)[C@H](C)NC(=O)[C@H](C)NC(=O)[C@H](CCCNC(=N)N)NC(=O)CNC(=O)CCCCNC(=O)CCCCNC(=O)CCCCNC(=O)[C@H](CCCCN)NC(=O)[C@H](NC(=O)[C@@H](N)Cc1c[nH]c2ccccc12)[C@@H](C)O)C(N)=O?
A: Activity [3]: 81%; EC50 [1]: > 10000 nM

Q: With CC(C)C[C@H](NC(=O)CNC(=O)[C@H](C)NC(=O)[C@H](C)NC(=O)[C@H](CCCNC(=N)N)NC(=O)CNC(=O)CCCCNC(=O)CCCCNC(=O)CCCCNC(=O)[C@H](C)NC(=O)[C@H](Cc1ccc(O)cc1)NC(=O)[C@@H](N)Cc1c[nH]c2ccccc12)C(=O)N[C@@H](CO)C(=O)N[C@@H](CO)C(N)=O (H-WYA[Ava][Ava][Ava]GRAAGLSS-NH2) as the compound, how does the EC50 [1] read?
A: 478 nM

Q: With CC(C)C[C@H](NC(=O)CNC(=O)[C@H](C)NC(=O)[C@H](C)NC(=O)[C@H](C)NC(=O)CNC(=O)CCCCNC(=O)CCCCNC(=O)CCCCNC(=O)[C@H](CCCCN)NC(=O)[C@H](Cc1ccc(O)cc1)NC(=O)[C@@H](N)Cc1c[nH]c2ccccc12)C(=O)N[C@@H](CO)C(=O)N[C@@H](CO)C(N)=O (H-WYK[Ava][Ava][Ava]GAAAGLSS-NH2) as the compound, how does the EC50 [1] read?
A: > 10000 nM

Q: For CC(C)C[C@H](NC(=O)[C@H](CC(C)C)NC(=O)CNC(=O)[C@H](C)NC(=O)[C@H](C)NC(=O)[C@H](CCCNC(=N)N)NC(=O)CNC(=O)CCCCNC(=O)CCCCNC(=O)CCCCNC(=O)[C@H](CCCCN)NC(=O)[C@H](Cc1ccc(O)cc1)NC(=O)[C@H](Cc1c[nH]c2ccccc12)NC(=O)CCc1c[nH]c2ccccc12)C(N)=O ({Propanoyl(3-indol-3-yl)}-WYK[Ava][Ava][Ava]GRAAGLL-NH2), which EC50 [5] is on record?
A: 2.7 nM

Q: What about the remaining at 0.25 h, 1 µM [6] of the same compound?
A: 86%

Q: And the half-life at 1 µM [7]?
A: 39.1 min

Q: What about the EC50 [1] of the same compound?
A: 8 nM

Q: For CC(C)C[C@H](NC(=O)CNC(=O)[C@H](C)NC(=O)[C@H](C)NC(=O)[C@H](CCCNC(=N)N)NC(=O)CCCCNC(=O)CCCCNC(=O)CCCCNC(=O)[C@H](CCCCN)NC(=O)[C@H](Cc1ccc(O)cc1)NC(=O)[C@@H](N)Cc1c[nH]c2ccccc12)C(=O)N[C@H](CC(C)C)C(N)=O, which EC50 [1] is on record?
A: 463 nM

Q: What about the Emax ([2]; filed as agonist) of the same compound?
A: 57%

Q: For CSCC[C@H](NC(=O)[C@H](CC(C)C)NC(=O)[C@H](CC(C)C)NC(=O)CNC(=O)[C@H](C)NC(=O)[C@H](C)NC(=O)[C@H](CCCNC(=N)N)NC(=O)CNC(=O)[C@@H](NC(=O)[C@@H](NC(=O)[C@H](Cc1cnc[nH]1)NC(=O)[C@H](Cc1ccc(O)cc1)NC(=O)[C@H](CCCNC(=N)N)NC(=O)[C@@H]1CCCN1C(=O)[C@H](CO)NC(=O)[C@H](C)NC(=O)[C@@H](NC(=O)[C@H](Cc1cnc[nH]1)NC(=O)[C@H](CCCCN)NC(=O)[C@H](Cc1ccc(O)cc1)NC(=O)[C@@H](N)Cc1c[nH]c2ccccc12)C(C)C)[C@@H](C)O)C(C)C)C(=O)NCC(=O)N[C@@H](CC(C)C)C(N)=O, which EC80 [8] is on record?
A: 20 nM

Q: What about the Emax ([2]; filed as agonist) of the same compound?
A: 100%

Q: With CC(C)C[C@H](NC(=O)[C@H](CC(C)C)NC(=O)CNC(=O)[C@H](C)NC(=O)[C@H](C)NC(=O)[C@H](CCCNC(=N)N)NC(=O)CNC(=O)CCCCNC(=O)CCCCNC(=O)CCCCNC(=O)[C@H](CCCCN)NC(=O)[C@H](Cc1ccc(O)cc1)NC(=O)[C@H](Cc1c[nH]c2ccccc12)NC(=O)[C@@H](N)Cc1cn(C)c2ccccc12)C(N)=O (H-[Trp(1-Me)]WYK[Ava][Ava][Ava]GRAAGLL-NH2) as the compound, how does the IC50 [4] read?
A: 545 nM

Q: And the EC50 [1]?
A: > 10000 nM

Q: For CC(C)C[C@H](NC(=O)CNC(=O)[C@H](C)NC(=O)[C@H](C)NC(=O)[C@H](CCCNC(=N)N)NC(=O)CNC(=O)CCCCNC(=O)CCCCNC(=O)CCCCNC(=O)[C@H](CCCCN)NC(=O)[C@@H](NC(=O)[C@@H](N)Cc1c[nH]c2ccccc12)[C@@H](C)O)C(=O)N[C@H](C(N)=O)C(C)(C)C (H-WTK[Ava][Ava][Ava]GRAAGL[Tle]-NH2), which EC50 [1] is on record?
A: 479 nM

Q: Which remaining at 0.25 h, 1 µM [6] does the source give for CC(C)C[C@H](NC(=O)CNC(=O)[C@H](CO)NC(=O)[C@H](CC(C)C)NC(=O)[C@H](CC(C)C)NC(=O)CNC(=O)[C@H](C)NC(=O)[C@H](C)NC(=O)[C@H](CCCNC(=N)N)NC(=O)CNC(=O)[C@@H](NC(=O)[C@H](CO)NC(=O)[C@H](Cc1ccc(O)cc1)NC(=O)[C@H](CO)NC(=O)[C@H](CO)NC(=O)[C@H](Cc1cnc[nH]1)NC(=O)CNC(=O)[C@H](C)NC(=O)[C@H](C)NC(=O)[C@@H]1CCCN1C(=O)[C@H](CCCCN)NC(=O)[C@H](Cc1ccc(O)cc1)NC(=O)[C@@H](N)Cc1c[nH]c2ccccc12)C(C)C)C(N)=O here?
A: 48%

Q: With CC(C)C[C@H](NC(=O)[C@H](CC(C)C)NC(=O)CNC(=O)[C@H](C)NC(=O)[C@H](C)NC(=O)[C@@H](CCCNC(=N)N)NC(=O)CCCCNC(=O)CCCCNC(=O)CCCCNC(=O)[C@H](CCCCN)NC(=O)[C@H](Cc1ccc(O)cc1)NC(=O)[C@@H](N)Cc1c[nH]c2ccccc12)C(N)=O as the compound, how does the EC50 [1] read?
A: > 10000 nM
